Positions count from the first letter of the chain named. Entries after “also recorded” stand apart in the source; their conditions may differ.
Experiments:
rat PXR = target: T1, rat PXR (Rattus norvegicus, UniProt Q9R1A7); test: Activation of rat PXR, cotransfection with CYP3A4-DP-Luc in HepG2; details: 24 h
T1 sequence (Q9R1A7 1-431): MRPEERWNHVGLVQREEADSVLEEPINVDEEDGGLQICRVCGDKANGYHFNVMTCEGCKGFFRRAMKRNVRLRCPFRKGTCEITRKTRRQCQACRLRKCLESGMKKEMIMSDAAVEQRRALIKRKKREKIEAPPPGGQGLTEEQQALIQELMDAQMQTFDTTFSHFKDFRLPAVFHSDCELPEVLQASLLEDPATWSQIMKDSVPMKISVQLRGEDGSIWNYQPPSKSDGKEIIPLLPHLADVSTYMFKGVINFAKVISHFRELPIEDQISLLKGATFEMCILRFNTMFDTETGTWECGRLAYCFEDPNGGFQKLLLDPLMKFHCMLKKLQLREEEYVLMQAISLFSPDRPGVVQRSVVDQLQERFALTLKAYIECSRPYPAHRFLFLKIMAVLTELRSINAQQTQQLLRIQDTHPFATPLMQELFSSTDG

CYP3A4 [1] = test: CYP3A4 expression in human primary hepatocytes; details: 10 µM, 24 h; for induction of CYP3A4 mRNA: four donors
carboxylesterase HCE2 = carboxylesterase HCE2 (Homo sapiens, UniProt O00748); test: Hydrolysis of pyrethroids by recombinant HCE2; assay type: in vitro ADME; details: for preference for hydrolysis by HCE2 over HCE1: recombinant HCE2 vs HCE1 lysates, Tris-HCl pH 7.4
Chain of carboxylesterase HCE2 (O00748 27-559): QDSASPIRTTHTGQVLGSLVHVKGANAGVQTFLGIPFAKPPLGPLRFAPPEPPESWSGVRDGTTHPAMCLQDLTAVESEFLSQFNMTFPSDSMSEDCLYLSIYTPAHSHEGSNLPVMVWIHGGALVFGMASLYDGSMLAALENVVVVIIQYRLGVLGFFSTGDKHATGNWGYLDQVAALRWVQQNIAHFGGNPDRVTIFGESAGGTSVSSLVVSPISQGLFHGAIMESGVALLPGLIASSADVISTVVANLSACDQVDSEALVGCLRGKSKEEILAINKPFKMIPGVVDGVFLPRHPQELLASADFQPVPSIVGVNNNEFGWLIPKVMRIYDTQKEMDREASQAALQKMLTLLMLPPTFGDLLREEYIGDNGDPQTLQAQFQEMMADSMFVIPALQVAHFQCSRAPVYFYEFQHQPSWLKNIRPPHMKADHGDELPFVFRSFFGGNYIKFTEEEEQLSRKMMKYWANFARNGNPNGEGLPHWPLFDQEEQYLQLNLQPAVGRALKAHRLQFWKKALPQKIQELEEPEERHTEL

[2] = for hydrolysis by pooled human liver microsomes (rate group / extent, in words): 50 µg protein, pyrethroid 200 µM mixed with equal volume, Tris-HCl pH 7.4, 37°C
CYP3A4 [3] = test: Metabolism of pyrethroids by recombinant CYP3A4; details: Supersomes 5 pmol P450, pyrethroid 50 µM, NRS, 37°C
human PXR [4] = target: T2, human PXR (Homo sapiens, UniProt O75469); test: Activation of human PXR in stable line hPXR-HRE; details: 10 µM, 24 h, ratio over DMSO
T2 sequence (O75469 1-434): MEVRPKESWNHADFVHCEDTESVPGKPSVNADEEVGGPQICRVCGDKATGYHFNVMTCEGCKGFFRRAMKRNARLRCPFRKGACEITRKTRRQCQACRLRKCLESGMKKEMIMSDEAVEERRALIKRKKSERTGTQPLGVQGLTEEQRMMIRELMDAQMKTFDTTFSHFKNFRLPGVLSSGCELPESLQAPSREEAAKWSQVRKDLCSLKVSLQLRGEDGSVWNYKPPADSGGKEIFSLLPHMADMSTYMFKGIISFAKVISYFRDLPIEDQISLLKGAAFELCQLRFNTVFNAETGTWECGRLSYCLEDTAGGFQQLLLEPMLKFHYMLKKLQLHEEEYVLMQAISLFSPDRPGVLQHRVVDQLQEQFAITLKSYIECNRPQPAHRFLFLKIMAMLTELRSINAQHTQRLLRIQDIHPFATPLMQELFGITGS

carboxylesterase HCE1 = target: T3, carboxylesterase HCE1 (Homo sapiens, UniProt P23141); test: Hydrolysis of pyrethroids by recombinant HCE1; assay type: in vitro ADME; details: for preference for hydrolysis by HCE1 over HCE2 (words): recombinant HCE1 vs HCE2 lysates, Tris-HCl pH 7.4
T3 sequence (P23141 18-567): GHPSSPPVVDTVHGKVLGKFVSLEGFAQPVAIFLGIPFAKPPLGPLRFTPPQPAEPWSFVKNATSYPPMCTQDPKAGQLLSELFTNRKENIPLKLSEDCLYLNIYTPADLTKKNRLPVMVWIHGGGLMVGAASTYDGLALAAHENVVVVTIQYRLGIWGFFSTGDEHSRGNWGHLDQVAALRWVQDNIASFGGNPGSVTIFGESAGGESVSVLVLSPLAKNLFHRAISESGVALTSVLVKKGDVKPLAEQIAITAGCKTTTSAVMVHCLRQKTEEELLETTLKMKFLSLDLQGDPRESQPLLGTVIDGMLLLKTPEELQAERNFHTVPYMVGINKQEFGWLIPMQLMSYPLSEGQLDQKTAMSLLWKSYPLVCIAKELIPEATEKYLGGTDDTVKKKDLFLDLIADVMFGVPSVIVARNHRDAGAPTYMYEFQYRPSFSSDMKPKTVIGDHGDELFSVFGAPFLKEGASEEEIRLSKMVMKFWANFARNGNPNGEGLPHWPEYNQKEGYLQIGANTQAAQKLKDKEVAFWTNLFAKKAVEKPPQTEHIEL

[5] = assay type: in vitro ADME, human; details: ten individual microsomal samples, 100 µM bioallethrin, 30 min
rats or mice = details: in vivo, po; cited from earlier work
CYP3A4 [6] = test: CYP3A4 mRNA in cell lines HepG2, Hop92 and LS180; assay type: cell-based, human; details: 24 h
human PXR variant S208F = target: T4, human PXR variant S208F (Homo sapiens, UniProt O75469, S208F); details: HepG2 cotransfection, 10 µM, 24 h; words: compared with wild-type PXR
T4 sequence (O75469 1-434 S208F): T2 sequence (O75469 1-434) with S208F

human PXR variant L412I = target: T5, human PXR variant L412I (Homo sapiens, UniProt O75469, L412I); details: HepG2 cotransfection, 10 µM, 24 h
T5 sequence (O75469 1-434 L412I): T2 sequence (O75469 1-434) with L412I

human PXR [7] = target: T2, human PXR; test: Activation of human PXR in hPXR-HRE cells transfected with HCE1, HCE2 or vector

SMILES	activation of rat PXR (rat PXR)	induction of CYP3A4 mRNA (CYP3A4 [1])	preference for hydrolysis by HCE2 over HCE1 (carboxylesterase HCE2)	hydrolysis by pooled human liver microsomes (rate group / extent, in words) [2]	extent of metabolism by CYP3A4 (CYP3A4 [3])	activation of human PXR (human PXR [4])	preference for hydrolysis by HCE1 over HCE2 (words) (carboxylesterase HCE1)	also measured
Cc1c(COC(=O)[C@@H]2[C@H](/C=C(\Cl)C(F)(F)F)C2(C)C)cccc1-c1ccccc1 (racemic) [Bifenthrin]	efficaciously activated rat PXR	≥ 2.5 fold	HCE2 preferably hydrolyzed					
C=CCC1=C(C)C(OC(=O)[C@@H]2[C@@H](C=C(C)C)C2(C)C)CC1=O (stereo partly drawn) [Bioallethrin]	2.0 fold	relatively weaker inducers; also recorded: least induction		rapidly hydrolyzed	greatest extent	activated PXR with less potency	HCE1 preferably hydrolyzed	hydrolysis rate relative to bifenthrin ([2]; pooled human liver microsomes): 8 times; variation of overall hydrolysis among individual samples [5]: ~ 2 fold
CC(C)=C[C@@H]1[C@@H](C(=O)OCc2coc(Cc3ccccc3)c2)C1(C)C [Bioresmethrin]		relatively weaker inducers; also recorded: least induction		highest extent		1.5 fold	hydrolyzed overwhelmingly by HCE1	LD50 (rats or mice): 1244 mg/kg; hydrolysis by HCE1 relative to esfenvalerate (carboxylesterase HCE1; recombinant HCE1): 7 times; preference for hydrolysis by HCE1 over HCE2 (words) (carboxylesterase HCE1; listed as bioresmethrin): HCE1 preferably hydrolyzed
CC(C)[C@H](C(=O)O[C@H](C#N)c1cccc(Oc2ccccc2)c1)c1ccc(Cl)cc1 [Esfenvalerate]		≥ 2.5 fold		low rate			HCE1 preferably hydrolyzed	concentration dependence of CYP3A4 mRNA induction (CYP3A4 [6]; HepG2 cells, 0–10 µM): concentration-dependent manner; lowest concentration with significant induction of CYP3A4 mRNA (CYP3A4 [6]; HepG2 cells, 0–10 µM): 0.5 µM; induction of CYP3A4 mRNA in HepG2 (CYP3A4 [6]; HepG2 cells, 1 µM): significant induction; induction of CYP3A4 mRNA in Hop92 (CYP3A4 [6]; Hop92 cells, 1 µM): significant induction; induction of CYP3A4 mRNA in LS180 (CYP3A4 [6]; LS180 cells, 1 µM): significant induction; activation of PXR variant S208F (human PXR variant S208F): no differences; LD50 (rats or mice): 325 mg/kg; activation of PXR variant L412I compared with wild-type PXR (human PXR variant L412I): less extent than the wild-type PXR
CC1(C)[C@H](C=C(Cl)Cl)[C@H]1C(=O)OCc1cccc(Oc2ccccc2)c1 [Per-1, trans-permethrin]			comparably hydrolyzed by both enzymes	high rate				hydrolysis by HCE2 faster than by HCE1 (carboxylesterase HCE2; recombinant enzymes): 15%
CC1(C)[C@H](C(=O)OCc2cccc(Oc3ccccc3)c2)[C@@H]1C=C(Cl)Cl [Per-2, cis-permethrin]				low rate				hydrolysis by HCE2 relative to HCE1 (carboxylesterase HCE2; recombinant enzymes): 7 times
CC1(C)C(C=C(Cl)Cl)C1C(=O)OCc1cccc(Oc2ccccc2)c1 (stereo not drawn) [Permethrin]	efficaciously activated rat PXR		HCE2 preferably hydrolyzed			relatively weak activators of human PXR		
CC(C)=CC1C(C(=O)OCN2C(=O)C3=C(CCCC3)C2=O)C1(C)C (stereo not drawn) [Tetramethrin]		relatively weaker inducers; also recorded: minimal induction; also recorded: least induction; also recorded: weakest CYP3A4 inducer	HCE2 preferably hydrolyzed; also recorded: slightly more active than HCE1		greatest extent			hydrolysis rate relative to tau-fluvalinate ([2]; pooled human liver microsomes): 9 times; lowest concentration causing significant activation of PXR, HCE1 (human PXR [7]; HCE1 co-transfected cells, 0.5-10 µM): 5 µM; lowest concentration causing significant activation of PXR, HCE2 (human PXR [7]; HCE2-cotransfected cells, 0.5-10 µM): > 10 µM; lowest concentration causing significant activation of PXR, vector (human PXR [7]; cells cotransfected by the vector, 0.5-10 µM): 1 µM; effect of carboxylesterase cotransfection on PXR activation (human PXR [7]; hPXR-HRE cells transfected with HCE1 or HCE2 vs vector, 10 µM): markedly decreased; decrease in PXR activation, HCE1 versus HCE2 cotransfection (human PXR [7]; hPXR-HRE cells, 10 µM): decreased more PXR activation than HCE1; CYP3A4 protein (Western blotting) (CYP3A4 [1]): slight increase
CC(C)[C@@H](Nc1ccc(C(F)(F)F)cc1Cl)C(=O)OC(C#N)c1cccc(Oc2ccccc2)c1 (stereo partly drawn) [tau-Fluvalinate]			HCE2 preferably hydrolyzed	low rate	least extent	3.5 fold		

Source: article PMC2728345 (Toxicology and applied pharmacology, 2009)
